A word on the melting point: it is the temperature of the solid-liquid transition. Turning to `Cc1cccc(C)c1NC(=O)CCS(=O)c1cc(C(C)(C)C)c(O)c(C(C)(C)C)c1` (centres undefined), the melting point was in the range of 162 to 164 °C.

Consider `O=C(O)c1ccccc1N1CCN(CC(O)COc2cccc3[nH]ccc23)CC1` (centres undefined), for which the melting point was 163 to 165 °C.

In the case of `CCCN1CCC(c2ccccc2)=C(C(=O)NCc2ccccc2)C1`, the melting point is 96 to 98 °C.

`COc1nccc(C)c1NC(=O)c1cccnc1Cl` came in with a melting point of 145 to 146 °C.

With `CC(=O)C(=[N+]=[N-])S(=O)(=O)C(C)C`, the melting point lay in the range of 53 to 55 °C.

`CC(C)OC(=O)C(Cl)(Cl)P(=O)(OC(C)C)c1ccccc1` (centres undefined) had a melting point of 42 to 44 °C.

Molecule `Cc1cc(CNC(=O)c2sc(N3C[C@@H](C)N(Cc4cc(F)cc(F)c4)C3=O)nc2C)no1` returned a melting point of 63 to 66 °C.

The molecule `CC(C)(C#N)Cc1ccc(CC(C)(C)C#N)cc1` came in with a melting point of 192 to 194 °C.

For `O=C(O)c1cc2cc(Br)ccc2nc1N[C@H](Cc1ccccc1)C(=O)O`, the melting point fell in the range of 140 to 141 °C.

With `CCCOc1cc(CCCOc2c(CC(=O)O)cccc2OC)n(Cc2ccc(Cl)cc2)n1`, the melting point was 131 to 132 °C.

`Nc1cccc(OC2CCCCO2)c1O` (centres undefined) had a melting point of 163 to 166 °C.

Consider `COC(=O)CSc1nc(Sc2ccc(Cl)cc2)ncc1[N+](=O)[O-]`, for which the melting point was in the range of 157 to 159 °C.

Turning to `O=C(C=C1OC(=O)c2cccc(Cl)c21)c1ccccc1`, the melting point is 148 °C.

On to `CCC1c2ccccc2-c2sc(Br)cc2N1S(=O)(=O)c1ccc(O)cc1` (centres undefined), for which the melting point was 183 to 185 °C.

Regarding `CCOP(=O)(OCC)C(OC)c1ccc(N)cc1` (centres undefined), the melting point was in the range of 100 to 101 °C.

`CCCOC(=O)C(Br)=CC1C(C(=O)OC(C#N)c2cccc(Oc3ccccc3)c2)C1(C)C` (centres undefined) had a melting point of 64 °C.

As to `CCOC(=O)C1CCC(C(=O)OCC)N1C(=O)C(N)Cc1c[nH]c2ccccc12` (centres undefined), the melting point is 144 to 149 °C.

Turning to `O=C1OCN(C(=O)OCc2ccccc2)[C@H]1CCCl`, the melting point lay within 75 to 77 °C.

`CCN1C(=O)CN=C(c2ccccc2F)c2cc(C(C)=NO)ccc21` showed a melting point of 236 to 238 °C.

`CCOc1ccc(N2CCN(c3c(C)c4c(c(OC)c3C)OC(C)C4)CC2)cc1` (centres undefined) displayed a melting point of 117 to 119 °C.

Turning to `O=C(Nc1c(F)cc(F)cc1F)N(Cc1cc2ccccc2c2ccccc12)C1CCCCC1`, the melting point is 122 to 124 °C.

Turning to `COC(=O)c1cc(CCc2cc(OC)ccc2OC)ccc1NC(C)=O`, the melting point was in the range of 81 to 83 °C.

On to `CC(C)(CO)CCCCC(CCCCC(C)(C)CO)(C(=O)O)C(=O)O`, for which the melting point lay in the range of 178 to 180 °C.

On to `Cc1nn(C)c2nc3n(c(=O)c12)CCS3`, for which the melting point lay within 229 to 230 °C.

For the molecule `O=CNc1ccnc(C(=O)Nc2ccc(Oc3ccccc3)cc2)c1O`, the melting point was 208 °C.

Regarding `CN(C(=O)OC(C)(C)C)c1cc(Oc2ccc(-c3nnn(C(c4ccccc4)(c4ccccc4)c4ccccc4)n3)cc2)ccc1N`, the melting point lay in the range of 192 to 193 °C.

The molecule `COc1ccc2c(c1)c1c(n2C(=O)c2ccc(F)cc2)CCC(C(=O)O)C1` (centres undefined) had a melting point of 258 to 260 °C.

`Cc1ccc(-c2ccc3c(c2)C=C(C(=O)Nc2ccc(C(=O)C4CCCCN4C(=O)OC(C)(C)C)cc2)CCO3)cc1` (centres undefined): the melting point lay in the range of 223 to 224 °C.

As for `O=C(c1ccc(-n2cncn2)cc1)N1CCC(NCCc2ccc(Cl)cc2)CC1`, the melting point lay within 131 to 132 °C.

Regarding `C=CCN(CC=C)c1nc(NC(=O)C=C)n2oc(=O)nc2n1`, the melting point was in the range of 157 to 161 °C.

`COc1ccc(N2CCN(CCC3OCCc4cc([Si](C)(C)C)ccc43)CC2)cc1` (centres undefined) registered a melting point of 78 to 80 °C.

In the case of `COc1cc(C(=O)C2C(=O)N(C)C(=O)N(C)C2=O)ccc1Oc1nc2ccccc2s1`, the melting point lay within 210 to 211 °C.

`O=C(Nc1ccc(Cc2nnn[nH]2)cc1)C(F)(F)C(F)(F)C(F)(F)C(F)(F)C(F)(F)C(F)(F)C(F)(F)F` displayed a melting point of 193 to 194 °C.

As to `COc1ccc(CNc2n[nH]c(N=CN(C)C)c2C#N)cc1`, the melting point was in the range of 147 to 148 °C.

The molecule `CCCCCCCCCCCCCCCCCCOc1ccc(C(=O)OC)c(OCCCOc2ccc(OCc3ccccc3)cc2)c1` yielded a melting point of 68 to 70 °C.

Molecule `Clc1ccc(-n2ncc3c2-c2ccccc2C3)cc1` showed a melting point of 128 to 129 °C.

For the molecule `CCn1cc(F)c(N=CN(C)C)nc1=O`, the melting point lay in the range of 157 to 160 °C.

As for `COc1c(Cl)ccnc1CO`, the melting point lay within 64 to 66 °C.

Take `c1cc(-c2cnco2)cc(-c2ncc(-c3cccc(-c4cnc(-c5cccc(-c6cnco6)c5)o4)n3)o2)c1`: the melting point was in the range of 254 to 256 °C.

`COCCOC(=O)c1ccc(O)cc1` yielded a melting point of 90 to 93 °C.

Consider `CCNC=C(C(=O)C=Cc1ccc(N(C)C)cc1)C(=O)OC`, for which the melting point lay in the range of 129 to 130 °C.

Consider `CN1C(=O)C2(COc3cc4c(cc32)OCCO4)c2c(OCc3ccccc3)cccc21` (centres undefined), for which the melting point fell in the range of 198 to 200 °C.

With `OC(CCl)CNc1ccc(Cl)c(Cl)c1` (centres undefined), the melting point lay within 51 to 53 °C.

In the case of `COc1ccc(-n2nc(Sc3cc(C)cc(C)c3)c(C)c(C#N)c2=O)cc1`, the melting point was in the range of 175 to 177 °C.

Regarding `COc1ccccc1CN[C@H]1CCCN(CCCCCC(=O)O)[C@H]1c1ccccc1` (relative stereo), the melting point lay within 53 to 65 °C.

In turn, `Cc1nnc(-c2nnc(S)o2)o1` gave a melting point of 150 to 151 °C.

On to `CCS(=O)(=O)c1ccc(S(=O)(=O)CC)nc1`, for which the melting point lay in the range of 148 to 150 °C.

For `Cc1c(C)c2c(c(C)c1NC(=O)CC(C)(C)C)OC(C)(C)C2Cc1ccccc1` (centres undefined), the melting point lay within 209 to 210 °C.

Molecule `Cc1cc(Br)cc(C)c1NC(=O)C(C)Br` (centres undefined) came in with a melting point of 187 to 189 °C.

On to `COc1cc2ncc(C#N)c(Cl)c2cc1[N+](=O)[O-]`, for which the melting point is 214 to 215 °C.

With `COc1ccc(-c2ccncc2)c(C)n1`, the melting point is 85 to 90 °C.

Molecule `CCCCC(Oc1c(Br)cc(-c2ccc(-c3c(Cc4ccccc4)oc4ccccc34)cc2)cc1Br)C(=O)O` (centres undefined) gave a melting point of 75 to 76 °C.

Consider `CCCCc1nn(-c2ccccc2C(F)(F)F)c(=O)n1Cc1ccc(-c2ccccc2S(=O)(=O)NC(=O)OC(C)(C)C)cc1F`, for which the melting point was 83 to 85 °C.

`CCOC1Oc2ccc3cc(C#N)c(Cn4cncn4)cc3c2C1(C)C` (centres undefined) gave a melting point of 128 to 129 °C.

Take `CN(c1cccc2cc(-c3nccs3)[nH]c12)S(=O)(=O)c1cccnc1Cl`: the melting point is 203 °C.

For the molecule `COc1ccc(CNc2c(C)c(C)c3c(c2C)C(c2ccc(C(C)C)cc2)C(C)(C)O3)cc1` (centres undefined), the melting point lay in the range of 95 to 96 °C.

`CCOC(=O)Cn1c(C)cc2c1CCCC2=O` had a melting point of 101 to 104 °C.

With `NC1=NN(c2nc3ccccc3s2)C(c2ccccc2)C1` (centres undefined), the melting point was 270 to 272 °C.

`CC(C)n1nc(-c2nc(-c3ccccc3)c(N)nc2-c2ccccc2)ccc1=O` gave a melting point of 225 to 226 °C.

`Cc1cc(C)cc(NCc2ccc3nc(NCC(O)CN4CCOCC4)n(Cc4nc(C)ccc4O)c3c2)c1` (centres undefined): the melting point came out at 198 °C.

As for `Cc1c(C#N)c(-c2ccc(C#N)cc2)c(C)n1Cc1cnc(Cl)c(COC(=O)CCC(=O)O)c1`, the melting point lay in the range of 187 to 188 °C.

Molecule `OCCCC(=C(c1ccccc1)c1ccc(O)cc1)c1ccccc1` came in with a melting point of 157 to 163 °C.

The molecule `O=C(Nc1cnc2ccccc2c1)OC1CN2CCC1CC2` (centres undefined) showed a melting point of 135 to 137 °C.

As for `C[C@H]1OC(=O)[C@@H](N)[C@@H]1C(=O)O`, the melting point was 196 to 200 °C.

Take `CCn1c(=O)ccc2cnc(Nc3ccc(F)cc3)nc21`: the melting point lay within 215 to 217 °C.

In the case of `Cc1cc(-n2ccnc2)c2cccc(OCc3c(Cl)ccc(S(=O)(=O)N4CCC[C@H]4C(N)=O)c3Cl)c2n1`, the melting point is 110 °C.

With `CCCCOc1cc(C(=O)O)cc(S(N)(=O)=O)c1Cc1ccccc1`, the melting point lay in the range of 228 to 229 °C.

`N#Cc1cc(-c2nc3cncnc3s2)ccc1Sc1cccc(F)c1` returned a melting point of 189 to 190 °C.

As to `O=C(CC(=O)c1ccc(-c2ccccc2)cc1)Nc1ccc(OCCN2CCCC2)c(C(=O)O)c1`, the melting point was 236 to 240 °C.

Turning to `CCn1cc(C(=O)O)c2nc3c(C)cccc3cc2c1=O`, the melting point was in the range of 251 to 253 °C.

Regarding `COc1cc2c(cc1OC)C(c1c[nH]cn1)CCC2` (centres undefined), the melting point is 140 °C.

For the molecule `CCOC(=O)Cn1ncc(CC)c1O`, the melting point was 77 to 78 °C.

`N#CSCCNc1cc(Cl)ccc1[N+](=O)[O-]` registered a melting point of 115 to 116 °C.

`COc1ccc(C(Cl)=C(C=O)c2ccc(OC)c(OC)c2)cc1OC` showed a melting point of 183 to 184 °C.

`C[C@H]1C(=O)Nc2ccc(Cl)cc2N1C(=O)Oc1ccc(F)cc1` had a melting point of 168 to 170 °C.

With `CCCCCCCCC(=O)NC1CC(C)(C)N(CC#N)C(C)(C)C1`, the melting point came out at 68 °C.

Take `COC(=O)COc1ccc(C=O)cc1OC`: the melting point was 91 to 93 °C.

`COc1ccc(CC(=O)O)cc1OCCCc1cn(-c2ccc(C(F)(F)F)cn2)nc1C(C)C` registered a melting point of 122 to 123 °C.

In turn, `CCCCNc1cc(C(=O)O)cc(S(N)(=O)=O)c1Oc1ccc(S(N)(=O)=O)cc1` registered a melting point of 265 °C.

The molecule `c1ccn2c(SCCN3CCNCC3)nnc2c1` yielded a melting point of 104 °C.

The molecule `Cc1cn(C(C)C(=O)c2ccc(Cl)cc2)c(=O)n1-c1ccc(N2CCN(c3ccc(O)cc3)CC2)cc1` (centres undefined) showed a melting point of 230 °C.

The molecule `CN(C)c1nc(N(C)C)nc(N(C)Cc2ccc(O)cc2)n1` displayed a melting point of 163 to 164 °C.

Molecule `Cc1cc(Cl)c2[nH]nc(C)c2n1` returned a melting point of 176 to 178 °C.

As to `Cn1c(=O)[nH]c2ncccc2c1=O`, the melting point was in the range of 272 to 274 °C.

For the molecule `CN(C)C(=S)Sc1sn(CCc2ccccc2)c(=O)c1Cl`, the melting point lay within 125 to 127 °C.

Take `Cc1nc2c(s1)-c1nc(Nc3cccc([N+](=O)[O-])c3)ncc1CC2`: the melting point lay within 227 to 228 °C.

The molecule `Cc1ccc(C(=O)NCCC(=O)OCc2ccccc2)c(NC(=O)CCCCNC(=O)OC(C)(C)C)c1` returned a melting point of 112 to 113 °C.

`O=C1NCCc2[nH]c3c(OCc4ccccc4)cccc3c21`: the melting point lay in the range of 182 to 185 °C.

Molecule `CCC(=O)c1ccc(C(O)C(C)(C)C)cc1` (centres undefined) came in with a melting point of 88 to 91 °C.

The record behind these values is a melting point compilation (Tetko et al.; mined from patent text by program, amines drawn as free bases though some values may be those of a salt).
